Reference: ChEMBL document CHEMBL1201862, “PubChem BioAssay data set” (2004)
Active and inactive are the calls of the source. Cut-off read from the data, not from the text of the source, for most assays here: actives have a measured EC50 and inactives only a lower limit.

Tests used:
[1] = cells; format: functional, cell-based
[2] = cells; format: functional, cell-based; remark: listed apart in the source
[3] = biological target: T1, Fatty acid synthase (Homo sapiens, UniProt P49327); test: FAS thioesterase domain inhibitors, dose response, biochemical, kinetic fluorescence intensity (AID 624326); format: functional;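 note: rate of fluorescence rise from hydrolysis of a fluorogenic O-methyl fluorescein ester substrate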
T1 sequence (P49327 whole entry, the tested form may be a part): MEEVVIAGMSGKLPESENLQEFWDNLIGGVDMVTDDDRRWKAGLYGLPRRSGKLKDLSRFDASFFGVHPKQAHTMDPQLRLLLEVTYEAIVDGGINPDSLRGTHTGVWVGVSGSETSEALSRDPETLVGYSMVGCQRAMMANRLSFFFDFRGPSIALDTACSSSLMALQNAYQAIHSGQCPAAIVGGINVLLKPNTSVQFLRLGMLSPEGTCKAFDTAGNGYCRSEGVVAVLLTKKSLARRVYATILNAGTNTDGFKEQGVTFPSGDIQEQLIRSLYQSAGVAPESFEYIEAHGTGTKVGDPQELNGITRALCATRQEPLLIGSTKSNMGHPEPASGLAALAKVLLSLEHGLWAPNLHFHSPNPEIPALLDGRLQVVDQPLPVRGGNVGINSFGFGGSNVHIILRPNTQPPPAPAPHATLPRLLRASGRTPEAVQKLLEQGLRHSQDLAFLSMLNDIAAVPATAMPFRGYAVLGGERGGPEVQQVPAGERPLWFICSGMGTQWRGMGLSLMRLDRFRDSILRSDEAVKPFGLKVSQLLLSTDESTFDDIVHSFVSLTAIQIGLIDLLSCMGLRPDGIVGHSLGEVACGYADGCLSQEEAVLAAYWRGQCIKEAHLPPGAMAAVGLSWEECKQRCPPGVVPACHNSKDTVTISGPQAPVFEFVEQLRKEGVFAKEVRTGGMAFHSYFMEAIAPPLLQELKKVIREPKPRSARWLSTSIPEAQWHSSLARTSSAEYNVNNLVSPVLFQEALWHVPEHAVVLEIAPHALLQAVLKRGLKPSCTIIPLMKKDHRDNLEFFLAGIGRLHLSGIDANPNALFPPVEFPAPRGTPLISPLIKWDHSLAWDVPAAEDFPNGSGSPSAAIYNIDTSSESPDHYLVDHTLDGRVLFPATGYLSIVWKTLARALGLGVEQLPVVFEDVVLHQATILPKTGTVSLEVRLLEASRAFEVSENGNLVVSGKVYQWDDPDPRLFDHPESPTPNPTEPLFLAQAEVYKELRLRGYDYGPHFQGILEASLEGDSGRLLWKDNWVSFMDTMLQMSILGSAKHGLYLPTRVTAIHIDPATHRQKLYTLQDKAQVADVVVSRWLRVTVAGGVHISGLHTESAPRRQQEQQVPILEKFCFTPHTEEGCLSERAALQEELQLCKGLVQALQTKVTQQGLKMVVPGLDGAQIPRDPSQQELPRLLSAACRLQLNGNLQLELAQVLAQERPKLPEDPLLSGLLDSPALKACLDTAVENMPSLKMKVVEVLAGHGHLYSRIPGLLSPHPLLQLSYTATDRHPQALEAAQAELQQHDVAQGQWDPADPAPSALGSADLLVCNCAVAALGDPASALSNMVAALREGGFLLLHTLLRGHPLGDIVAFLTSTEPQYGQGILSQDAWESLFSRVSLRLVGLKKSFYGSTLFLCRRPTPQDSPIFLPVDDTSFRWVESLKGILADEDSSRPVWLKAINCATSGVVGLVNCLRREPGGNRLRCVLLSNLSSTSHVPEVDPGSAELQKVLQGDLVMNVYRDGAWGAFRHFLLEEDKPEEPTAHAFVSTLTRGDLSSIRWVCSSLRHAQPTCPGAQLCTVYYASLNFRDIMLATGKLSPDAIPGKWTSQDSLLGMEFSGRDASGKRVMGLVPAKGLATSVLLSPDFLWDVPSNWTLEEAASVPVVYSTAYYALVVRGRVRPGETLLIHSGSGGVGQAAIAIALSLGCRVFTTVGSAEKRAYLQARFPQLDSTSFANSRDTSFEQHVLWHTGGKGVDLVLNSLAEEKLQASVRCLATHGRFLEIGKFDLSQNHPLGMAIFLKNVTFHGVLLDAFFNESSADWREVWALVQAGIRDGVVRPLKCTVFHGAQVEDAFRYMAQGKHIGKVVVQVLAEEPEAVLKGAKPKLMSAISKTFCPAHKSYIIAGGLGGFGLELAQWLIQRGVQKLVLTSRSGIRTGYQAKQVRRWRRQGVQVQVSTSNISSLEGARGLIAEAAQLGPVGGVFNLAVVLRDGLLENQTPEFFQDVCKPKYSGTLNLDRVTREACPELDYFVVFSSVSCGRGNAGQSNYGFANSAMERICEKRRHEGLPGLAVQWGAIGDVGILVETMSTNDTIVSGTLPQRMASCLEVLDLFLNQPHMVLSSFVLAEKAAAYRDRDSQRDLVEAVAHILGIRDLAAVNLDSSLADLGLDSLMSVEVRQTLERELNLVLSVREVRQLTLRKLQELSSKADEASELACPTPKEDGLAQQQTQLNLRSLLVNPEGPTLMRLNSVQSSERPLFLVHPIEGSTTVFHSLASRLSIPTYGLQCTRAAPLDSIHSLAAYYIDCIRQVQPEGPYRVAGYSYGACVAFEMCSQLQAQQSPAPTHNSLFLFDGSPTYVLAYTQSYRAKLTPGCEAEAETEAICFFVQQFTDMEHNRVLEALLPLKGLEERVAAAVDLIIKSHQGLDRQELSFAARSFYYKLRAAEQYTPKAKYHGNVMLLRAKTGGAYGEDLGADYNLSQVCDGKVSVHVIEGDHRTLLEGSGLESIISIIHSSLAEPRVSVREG

[4] = biological target: T1, Fatty acid synthase; test: FAS thioesterase domain inhibitors, dose response, biochemical, endpoint fluorescence intensity, uHTS hits (AID 624327); format: functional;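 note: fluorescence from hydrolysis of an O-methyl fluorescein acyl ester substrate by the enzyme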
[5] = Luminescence Cell-Based Dose Retest to Confirm Inhibitors of Cancer Stem Cells. [Related pubchem assays (depositor defined):AID2717, AID2721]; format: functional; details: Homo sapiens
[6] = HEp-2 cell cytotoxicity, dose response, cytotoxicity control for RSV inhibitor project, HTS (AID 2410); format: functional; details: human respiratory syncytial virus
[7] = biological target: T2, Heat shock factor protein 1 (Mus musculus, UniProt P38532); test: HSF1 potentiators in luciferase reporter cells, confirmation, cell-based, NIH3T3, luminescence, dose retest (AID 435004); format: functional;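 note: stress induced by proteasome inhibitor MG132 added 30 min after compound; luciferase reporter driven by HSF1 response element in NIH3T3 cells; actives raise luminescence as potentiators of the MG132 stress response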
T2 sequence (P38532 whole entry): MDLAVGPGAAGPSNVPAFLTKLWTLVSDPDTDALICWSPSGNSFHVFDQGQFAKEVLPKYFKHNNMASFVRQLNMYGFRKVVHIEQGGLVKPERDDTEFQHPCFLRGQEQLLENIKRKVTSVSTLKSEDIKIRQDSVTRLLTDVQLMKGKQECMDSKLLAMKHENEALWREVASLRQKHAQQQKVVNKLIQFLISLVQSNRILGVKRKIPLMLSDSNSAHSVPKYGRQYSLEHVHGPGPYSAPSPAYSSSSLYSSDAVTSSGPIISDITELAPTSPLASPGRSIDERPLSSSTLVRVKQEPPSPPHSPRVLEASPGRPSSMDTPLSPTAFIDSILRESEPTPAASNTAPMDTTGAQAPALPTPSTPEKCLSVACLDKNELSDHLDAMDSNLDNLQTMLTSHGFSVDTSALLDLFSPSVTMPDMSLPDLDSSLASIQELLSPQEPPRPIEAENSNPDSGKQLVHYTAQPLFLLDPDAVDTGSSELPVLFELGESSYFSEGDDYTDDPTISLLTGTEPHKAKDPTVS

[8] = biological target: T3, Replicative DNA helicase DnaB (Mycobacterium tuberculosis, UniProt P9WMR3); test: DnaB intein splicing inhibitors, dose response, biochemical, cell-free fluorescence (AID 449749); format: functional
T3 sequence (P9WMR3 whole entry): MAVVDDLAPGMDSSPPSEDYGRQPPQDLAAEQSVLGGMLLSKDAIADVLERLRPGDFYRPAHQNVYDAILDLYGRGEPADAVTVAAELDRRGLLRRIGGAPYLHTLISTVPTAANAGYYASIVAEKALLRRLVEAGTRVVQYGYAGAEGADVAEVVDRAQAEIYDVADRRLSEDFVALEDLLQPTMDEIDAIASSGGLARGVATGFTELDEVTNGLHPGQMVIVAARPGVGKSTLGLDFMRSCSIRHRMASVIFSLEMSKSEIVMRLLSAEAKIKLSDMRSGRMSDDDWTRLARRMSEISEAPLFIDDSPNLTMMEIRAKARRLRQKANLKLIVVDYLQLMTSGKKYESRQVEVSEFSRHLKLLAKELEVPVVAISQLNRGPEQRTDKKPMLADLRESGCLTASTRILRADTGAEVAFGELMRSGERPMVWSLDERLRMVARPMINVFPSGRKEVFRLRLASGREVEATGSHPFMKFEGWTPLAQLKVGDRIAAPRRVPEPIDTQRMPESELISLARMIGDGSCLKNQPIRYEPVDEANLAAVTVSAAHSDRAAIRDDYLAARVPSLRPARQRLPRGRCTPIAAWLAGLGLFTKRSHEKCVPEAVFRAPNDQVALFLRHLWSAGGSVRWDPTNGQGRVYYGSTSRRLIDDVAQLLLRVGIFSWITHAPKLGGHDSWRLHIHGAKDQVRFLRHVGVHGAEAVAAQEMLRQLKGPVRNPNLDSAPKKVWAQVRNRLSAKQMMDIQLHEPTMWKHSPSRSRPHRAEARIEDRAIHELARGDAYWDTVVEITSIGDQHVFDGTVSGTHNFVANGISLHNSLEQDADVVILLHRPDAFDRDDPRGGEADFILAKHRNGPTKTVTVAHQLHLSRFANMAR

[9] = biological target: T4, Protein RecA (Mycobacterium tuberculosis, UniProt P9WHJ3); test: Fluorescence Cell-Free Homogeneous Dose Retest to Identify Inhibitors of RecA-Intein Splicing Activity. [Related pubchem assays (depositor defined):AID2097, AID2223, AID489010, AID492950]; format: functional
T4 sequence (P9WHJ3 whole entry): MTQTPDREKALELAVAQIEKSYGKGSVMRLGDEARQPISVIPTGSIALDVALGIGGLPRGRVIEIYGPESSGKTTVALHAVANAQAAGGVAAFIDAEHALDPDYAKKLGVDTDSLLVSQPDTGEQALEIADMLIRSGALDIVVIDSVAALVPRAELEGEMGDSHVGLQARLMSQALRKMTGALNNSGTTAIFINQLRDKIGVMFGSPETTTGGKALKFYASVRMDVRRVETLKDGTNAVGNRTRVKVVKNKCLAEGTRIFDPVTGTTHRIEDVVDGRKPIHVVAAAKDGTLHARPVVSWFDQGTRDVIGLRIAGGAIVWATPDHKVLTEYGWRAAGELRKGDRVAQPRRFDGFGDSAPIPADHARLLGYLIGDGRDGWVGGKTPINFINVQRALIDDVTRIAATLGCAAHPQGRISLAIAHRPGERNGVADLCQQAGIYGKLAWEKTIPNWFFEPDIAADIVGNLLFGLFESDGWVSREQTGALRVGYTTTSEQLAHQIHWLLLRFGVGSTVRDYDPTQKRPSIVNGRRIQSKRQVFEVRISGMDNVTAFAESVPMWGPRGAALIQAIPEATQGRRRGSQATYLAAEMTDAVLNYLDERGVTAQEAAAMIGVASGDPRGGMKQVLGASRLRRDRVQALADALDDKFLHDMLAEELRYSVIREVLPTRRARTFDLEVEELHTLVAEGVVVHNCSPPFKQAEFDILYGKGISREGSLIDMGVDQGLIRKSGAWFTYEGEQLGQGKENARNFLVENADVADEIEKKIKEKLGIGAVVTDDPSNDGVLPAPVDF

[10] = biological target: T5, Corticotropin-releasing factor receptor 2/Corticotropin-releasing factor-binding protein (Homo sapiens, UniProt P24387+Q13324); test: activators of CRF receptor 2 with binding protein – uHTS hits, confirmation (AID 602473); format: functional; details: read-out: EC50_Mean
T5 sequence (Q13324 whole entry): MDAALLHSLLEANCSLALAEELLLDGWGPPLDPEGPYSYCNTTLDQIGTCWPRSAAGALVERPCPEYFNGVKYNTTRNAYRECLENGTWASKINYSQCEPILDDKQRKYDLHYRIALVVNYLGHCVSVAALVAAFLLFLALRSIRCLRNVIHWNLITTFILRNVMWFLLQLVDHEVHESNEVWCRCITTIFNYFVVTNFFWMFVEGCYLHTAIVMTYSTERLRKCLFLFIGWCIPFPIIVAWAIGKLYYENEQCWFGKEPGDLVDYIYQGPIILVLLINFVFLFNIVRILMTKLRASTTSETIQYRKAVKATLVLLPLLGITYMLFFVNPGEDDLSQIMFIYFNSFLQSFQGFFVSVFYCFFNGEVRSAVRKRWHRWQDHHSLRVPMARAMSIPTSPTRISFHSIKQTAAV
T5 sequence (P24387 whole entry): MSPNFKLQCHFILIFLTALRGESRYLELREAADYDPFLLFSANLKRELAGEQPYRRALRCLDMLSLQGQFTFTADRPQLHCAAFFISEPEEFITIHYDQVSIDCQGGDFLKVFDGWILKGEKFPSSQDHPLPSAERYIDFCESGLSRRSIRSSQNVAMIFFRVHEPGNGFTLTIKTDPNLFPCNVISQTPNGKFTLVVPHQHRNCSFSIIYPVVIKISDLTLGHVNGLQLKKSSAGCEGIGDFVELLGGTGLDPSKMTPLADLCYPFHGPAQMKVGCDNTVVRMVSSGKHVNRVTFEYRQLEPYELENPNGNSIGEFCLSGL

[11] = biological target: T5, Corticotropin-releasing factor receptor 2/Corticotropin-releasing factor-binding protein; test: Dose Response confirmation of uHTS hits for small molecule antagonists of the CRF-binding protein and CRF-R2 receptor complex.; format: functional; details: read-out: IC50_Mean
[12] = CRF-BP/CRF-R2 complex antagonists, dose response, cell-based, uHTS hits, 384-well (AID 651639); format: functional, Homo sapiens; details: read-out: IC50_Mean
[13] = tested on: BJ; test: cytotoxicity toward BJ-TERT fibroblasts, dose response, cell-based, RAS-independent, luminescence (AID 1933); format: functional; details: Homo sapiens
[14] = cytotoxicity toward DRD oncogenic fibroblasts, dose response, cell-based, non-viral oncogenic, luminescence (AID 1934); format: functional; details: Homo sapiens
[15] = tested on: BJ; test: cells; format: functional, cell-based; details: Homo sapiens
[16] = tested on: BJ; test: cytotoxicity toward BJ-TERT-LT-ST fibroblasts, dose response, cell-based, RAS-independent, luminescence (AID 1935); format: functional; details: Homo sapiens;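 note: BJ fibroblasts immortalized with TERT plus LT and ST oncogenes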
[17] = tested on: H4; test: Luminescence Cell-Based Dose Response HTS to Identify Activators of 5'UTR Stem-Loop Driven Prion Protein mRNA Translation in H4 Neuroglioblastoma Cells. [Related pubchem assays: 1829 (Project Summary), 1814 (Primary HTS)]; format: functional; details: Homo sapiens
[18] = Luminescence Cell-Based Dose Confirmation HTS to Identify Activators of 5'UTR Stem-Loop Driven Alpha-Synuclein mRNA Translation in H4 Neuroglioblastoma Cells. [Related pubchem assays: 1829 (Project Summary), 1814 (Primary HTS)]; format: functional
[19] = Luminescence Cell-Based Dose Response HTS to Identify Activators of Luciferase Translation or Activity in H4 […] Cells. [Related pubchem assays: 1829 (Project Summary), 1814 (Primary HTS)]; format: functional

For `CCOc1ccc(N2CC(C(=O)Nc3ccccc3C(=O)NC3CC3)CC2=O)cc1` (stereo not drawn), the EC50 [1] was > 350 µM (not active) and the EC50 [2] was > 350 µM (not active).

In the case of `CC1CCc2nc(NC(=O)CN3CCN(c4ccc(F)cc4)CC3)sc2C1` (stereo not drawn), the IC50 [3] is reported as 1.81 µM (active) and the IC50 [4] is reported as 2.04 µM (active).

In the case of `O=C(/C=C/c1ccc(Cl)c([N+](=O)[O-])c1)Nc1cccc(NC(=O)c2ccco2)c1`, the AC50 [5] is reported as 2.56 µM (active) and the CC50 [6] is reported as 21.2 µM (active).

For `O=C(N/C(=C/C=C/c1ccccc1)C(=O)N1CCCCC1)c1ccc([N+](=O)[O-])cc1`, the IC50 [3] was 0.258 µM (active) and the IC50 [4] was 0.295 µM (active).

With `O=C(OCc1cccc(C(F)(F)F)c1)c1cc([N+](=O)[O-])ccc1N1CCOCC1` the IC50 [3] was 7.24 µM (active) and the IC50 [4] was 7.84 µM (active).

With `Cc1ccc(-c2cc(NC(=O)CCl)n(-c3ccccc3)n2)cc1` the AC50 [5] was 5.24 µM (active), the EC50 [7] was 9.36 µM (active) and the AC50 [8] was 16.2 µM (active). The EC50 [9] was 5.68 µM (active).

In the case of `CCOc1ccc(CCNC(=O)COC(=O)Cn2nc(C)c([N+](=O)[O-])c2C)cc1OCC`, the EC50 [1] is reported as > 350 µM (not active) and the EC50 [2] is reported as > 350 µM (not active).

In the case of `COc1ccc(C2N(Cc3ccccc3)CC(=O)N2/N=C(\C)c2ccccc2)cc1` (stereo not drawn), the EC50 [10] is reported as > 53 µM (inactive), the IC50 [11] is reported as 13.8 µM (active) and the IC50 [12] is reported as 4.93 µM (active).

For `COc1cc(NC(=O)CSc2nc3ccccc3n2-c2ccccc2)c(C)cc1[N+](=O)[O-]`, the EC50 [13] was > 150 µM (not active), the EC50 [14] was > 150 µM (not active) and the EC50 [10] was > 53 µM (inactive). For the same molecule, the EC50 [15] was > 150 µM (not active), the EC50 [16] was > 150 µM (inconclusive) and the IC50 [11] was > 47.1 µM (inactive).

For `Cc1cccc(-n2ncc3c(NCc4ccco4)ncnc32)c1`, the EC50 [1] was 88.7 µM (active), the EC50 [2] was > 350 µM (not active) and the EC50 [17] was 64.9 µM (active). The EC50 [18] was 4.04 µM (active) and the EC50 [19] was 49.1 µM (active).

With `CCCCCCCCCCCC(=O)NC(Cc1ccc(OC)c([N+](=O)[O-])c1)C(=O)O` (stereo not drawn) the EC50 [10] was > 53 µM (inactive), the IC50 [11] was 11.6 µM (active) and the IC50 [12] was > 20 µM (inactive).
